Measured values taken from PubChem BioAssay AID651630 (Sanford-Burnham Center for Chemical Genomics, 2012).
pIC50: −log10 of the molar value. The source made the active and inactive calls.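 The calls were made as follows: active = lipid-stain IC50 at or below a set limit, with nuclear-stain toxicity IC50 at least five times higher; inactive = the rest.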

What was measured:
[1] = system: DAPI; assay: triacylglycerol accumulation inhibitor potency, dose response, cell-based, panel, Nile Red and DAPI fluorescence, H9c2 (AID 651630); conditions: H9c2 cells, DAPI nuclear fluorescence (cytotoxicity counter-readout), oleic acid;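 also: cells exposed to compound overnight before fixation and staining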
[2] = system: TAG; assay: as above; conditions: H9c2 cells, Nile Red TAG fluorescence, oleic acid

| Compound | IC50 ([2]; mean of runs) | pIC50 ([2]; run 1) | pIC50 ([2]; run 2) | pIC50 ([2]; mean of runs) | IC50 cytotoxicity (DAPI nuclear signal decrease) ([1]; run 1) [µM] | IC50 cytotoxicity (DAPI nuclear signal decrease) ([1]; run 2) [µM] | IC50 cytotoxicity (DAPI nuclear signal decrease) ([1]; mean of runs) |
| --- | --- | --- | --- | --- | --- | --- | --- |
| COc1ccc([C@H]2C[C@H](O)[C@@H](n3cc(-c4ccc(F)cc4)nn3)CN2Cc2cccs2)cc1 | 18.3 µM (inactive) | 4.91 | 4.61 | – | 23.6 | > 25 | – |
| CCOc1ccc(C(=O)Nc2nnc(NC(=S)Nc3ccccc3)s2)cc1 | – | < 4.60 | 4.64 | – | > 25 | > 25 | > 25 µM (inactive) |
| COC(=O)C=C1CCC2C3CCC4=CC(=O)C(Br)CC4(C)C3C(=O)CC12C (stereo not drawn) | – | 5.02 | 4.99 | 5.01 | > 25 | 22.3 | – |
| COc1cc(C#Cc2c(-c3cncn3C)n(C)c3ccc(-c4cc(OC)c(OC)c(OC)c4)cc23)cc(OC)c1 | > 25 µM (inactive) | < 4.60 | < 4.60 | – | > 25 | > 25 | > 25 µM (inactive) |
| S=C(N/N=C/c1cccs1)NC1CC2CCC1C2 (stereo not drawn) | – | 5.33 | 4.91 | 5.07 | > 25 | > 25 | > 25 µM (inactive) |
| COc1cc(C#Cc2c(-c3cncn3C)n(C)c3ccc(-c4ccc5cc[nH]c5c4)cc23)cc(OC)c1 | – | 4.92 | 4.95 | 4.93 | > 25 | > 25 | > 25 µM (inactive) |
| NC(Cc1ccc(F)cc1)c1csc(Nc2ccc(C(F)(F)F)cn2)n1 (stereo not drawn) | – | < 4.60 | 5.08 | – | > 25 | 23.8 | – |
| COc1ccc(C2=CC(c3ccc4c(c3)OCO4)c3c(c4ccccc4oc3=O)O2)cc1OC (stereo not drawn) | 18.8 µM (inactive) | 4.69 | 4.77 | – | > 25 | > 25 | > 25 µM (inactive) |
| CSc1nc(N(C)NC(=O)c2ccccc2)c2ccccc2n1 | 17.8 µM (inactive) | 4.66 | 4.87 | – | > 25 | > 25 | > 25 µM (inactive) |
| CC(C)(C)OC(=O)N(CCc1ccccc1)Cc1ccccc1OCc1cccc(NC(=O)/C=C/c2ccccc2)c1 | – | 4.68 | 5.05 | 4.82 | > 25 | > 25 | > 25 µM (inactive) |
| Cc1[nH]c2ccccc2c1C(c1ccccn1)N1CCC(C)CC1 (stereo not drawn) | 15.5 µM (inactive) | 4.83 | 4.79 | – | 21.2 | 22.4 | 21.8 µM (inactive) |
| COC(=O)c1cc(C(=O)N2CCN(c3ccccc3OC)CC2)cc([N+](=O)[O-])c1 | – | 4.93 | 4.84 | 4.88 | > 25 | > 25 | > 25 µM (inactive) |
| Cc1cccc(Oc2nc(-c3ccccn3)nc3ccccc23)c1 | > 25 µM (inactive) | < 4.60 | < 4.60 | – | > 25 | > 25 | > 25 µM (inactive) |
| c1ccc(-c2nc(N3CCOCC3)cc(N3CCOCC3)n2)cc1 | – | 5.24 | 4.85 | 5.00 | > 25 | > 25 | > 25 µM (inactive) |
| COc1ccc(C(C(=O)NC(C)(C)C)N(Cc2cccs2)C(=O)CCC(=O)Nc2cc(C)on2)cc1 (stereo not drawn) | – | 4.90 | 4.84 | 4.87 | > 25 | > 25 | > 25 µM (inactive) |
| CC(C)c1ccc(NC(=O)Nc2nc(C(N)COCc3ccccc3)cs2)cc1 (stereo not drawn) | – | < 4.60 | 4.85 | – | 20.8 | 19.7 | 20.2 µM (inactive) |

Second part, led by results:

| IC50 ([2]; mean of runs) | pIC50 ([2]; run 1) | pIC50 ([2]; run 2) | pIC50 ([2]; mean of runs) | Compound | IC50 cytotoxicity (DAPI nuclear signal decrease) ([1]; run 1) [µM] | IC50 cytotoxicity (DAPI nuclear signal decrease) ([1]; run 2) [µM] | IC50 cytotoxicity (DAPI nuclear signal decrease) ([1]; mean of runs) |
| --- | --- | --- | --- | --- | --- | --- | --- |
| – | 5.72 | 5.33 | 5.48 | CCC(C)(C)C1CCC2(CC1)NC(=O)N(CC(=O)NCCc1ccc(OC)c(OC)c1)C2=O (stereo not drawn) | > 25 | > 25 | – |
| > 25 µM (inactive) | < 4.60 | < 4.60 | – | COc1cc(/C=C2/NC(=O)N(Cc3ccccc3F)C2=O)ccc1O | > 25 | > 25 | > 25 µM (inactive) |
| > 25 µM (inactive) | < 4.60 | < 4.60 | – | CCOC(=O)[C@H]1[C@H]2COc3ccc(Br)cc3[C@@H]2N2C(=O)c3cc(Br)ccc3NC(=O)[C@@]12C | > 25 | > 25 | > 25 µM (inactive) |
| > 25 µM (inactive) | < 4.60 | < 4.60 | – | COc1ccc(NC(=O)C2(C)Cc3c(-c4ccc5c(c4)OCO5)ccnc3O2)cn1 (stereo not drawn) | > 25 | > 25 | > 25 µM (inactive) |
| – | 5.03 | 4.86 | 4.94 | COc1ccc(-c2ccc3[nH]c4c(c3c2)CCN2C[C@@H]([C@H](C)OC(=O)Nc3cc(Cl)cc(Cl)c3)[C@@H](N(C)C(=O)Nc3cc(Cl)cc(Cl)c3)C[C@@H]42)cc1 | > 25 | > 25 | > 25 µM (inactive) |
| > 25 µM (inactive) | < 4.60 | < 4.60 | – | CCOC(=O)c1cc(-c2ccccc2)sc1NC(=S)Nc1cccc(C)n1 | > 25 | > 25 | > 25 µM (inactive) |
| – | 5.18 | 5.08 | 5.13 | Cc1ccc(C2C(C=Nc3c(C)n(C)n(-c4ccccc4)c3=O)=C(c3ccccc3)Oc3ccccc32)cc1 (stereo not drawn) | > 25 | > 25 | > 25 µM (inactive) |
| – | 4.68 | < 4.60 | – | COc1ccc2[nH]c3c(c2c1)CCN1C(=O)C(CC(=O)NCC24CC5CC(CC(C5)C2)C4)C[C@H](C(=O)N(C(C)C)C(C)C)[C@@]31C (stereo partly drawn) | > 25 | > 25 | > 25 µM (inactive) |
| > 25 µM (inactive) | < 4.60 | < 4.60 | – | CCCSc1nc(SCC(=O)NCc2ccccc2)c2c3c(sc2n1)COC(C)(CC)C3 (stereo not drawn) | > 25 | > 25 | > 25 µM (inactive) |
| – | 5.13 | 5.18 | 5.15 | Cc1ccc(-c2csc(NC(=O)CSc3nc4ccccc4c(=O)n3CCCN(C)C)n2)cc1 | > 25 | > 25 | > 25 µM (inactive) |
| 15.6 µM (inactive) | 4.83 | 4.79 | – | COc1cc(C2C3=C(COC3=O)Oc3cc4c(cc32)OCO4)ccc1O (stereo not drawn) | > 25 | > 25 | > 25 µM (inactive) |
| 21.3 µM (inactive) | 4.75 | 4.61 | – | CCOc1ccc2nc(NC(=O)CN3CCC(n4nnc5cc(F)ccc54)CC3)sc2c1 | > 25 | > 25 | > 25 µM (inactive) |
| – | 4.95 | 4.88 | 4.91 | CCCCCc1cc(=O)oc2c(C(CCN3CCN(c4ccccc4)CC3)c3ccc(N(C)C)cc3)c(OC)cc(OC)c12 (stereo not drawn) | > 25 | > 25 | > 25 µM (inactive) |
| 20.5 µM (inactive) | 4.69 | 4.69 | – | Cc1cccc(NC(=O)C(C)Sc2nc3ccccc3c(=O)n2CCCN2CCOCC2)c1 (stereo not drawn) | > 25 | > 25 | > 25 µM (inactive) |
| – | 4.77 | < 4.60 | – | COc1cc(CC(=O)OCC(=O)c2ccc3c(c2)OCCO3)cc(OC)c1OC | 2.3 | > 25 | – |
| > 25 µM (inactive) | < 4.60 | < 4.60 | – | Cc1ccc(C(=O)Nc2cc(C)c(OCC(=O)N3CCOCC3)c(C)c2)cc1 | > 25 | > 25 | > 25 µM (inactive) |
| – | < 4.60 | 4.65 | – | O=C(NCCc1c[nH]c2ccccc12)C1CCC(Cn2c(=S)[nH]c3ccccc3c2=O)CC1 (stereo not drawn) | > 25 | > 25 | > 25 µM (inactive) |
| > 25 µM (inactive) | < 4.60 | < 4.60 | – | CC1(C)Cc2nc3sc4c(SCC(=O)NCc5ccco5)ncnc4c3cc2CO1 | > 25 | > 25 | > 25 µM (inactive) |
